Where “and” joins values, the source holds several entries; their conditions need not be identical. Equal values may be shown once. Toxic doses and inconclusive results are not listed.
Test system: B6C3F1 mice, intracerebral ependymoblastoma, median survival T/C
Assay: NCI In Vivo Anticancer Drug Screen. Data for tumor model Ependymoblastoma (intracerebral) in B6C3F1 mice
Conditions: endpoint: median survival time, higher = longer survival
Procedure: The antitumor activity of compounds was measured in mice bearing transplantable tumors. Survival or tumor size were measured and the results are expressed as the measurement made in the treated group (T) divided by the measurement made in the vehicle treated control group (C). The tumor model used in this assay is Ependymoblastoma (intracerebral) in B6C3F1 mice

Q: Which results are given for `CCCN(C)C(=O)N(CCCl)N=O`?
A: T/C (dose: 19.4 mg/kg/injection, schedule: Q01DX001 (ip), vehicle: DMSO): 116 % of control; T/C (dose: 31.3 mg/kg/injection, schedule: Q01DX001 (ip), vehicle: saline + alcohol): 320 % of control; T/C (dose: 32.4 mg/kg/injection, schedule: Q01DX001 (ip), vehicle: DMSO): 169 % of control; T/C (dose: 54.0 mg/kg/injection, schedule: Q01DX001 (ip), vehicle: DMSO): 239 % of control; T/C (dose: 62.5 mg/kg/injection, schedule: Q01DX001 (ip), vehicle: saline + alcohol): 324 % of control; T/C (dose: 90.0 mg/kg/injection, schedule: Q01DX001 (ip), vehicle: DMSO): 368 % of control; T/C (dose: 125.0 mg/kg/injection, schedule: Q01DX001 (ip), vehicle: saline + alcohol): 110 % of control; T/C (dose: 150.0 mg/kg/injection, schedule: Q01DX001 (ip), vehicle: DMSO): 366 % of control; T/C (dose: 250.0 mg/kg/injection, schedule: Q01DX001 (ip), vehicle: DMSO): 365 % of control

Q: `NC(=S)N/N=C/c1ccc(O)cn1` was tested. Which T/C (dose: 12.0 mg/kg/injection, schedule: Q01DX005 (ip), vehicle: saline) did it give?
A: Its T/C is 102 % of control.

Q: What about the T/C (dose: 24.0 mg/kg/injection, schedule: Q01DX005 (ip), vehicle: saline) of the same molecule?
A: Its T/C is 107 % of control.

Q: And the T/C (dose: 48.0 mg/kg/injection, schedule: Q01DX005 (ip), vehicle: saline)?
A: The T/C was 110 % of control.

Q: What about the T/C (dose: 96.0 mg/kg/injection, schedule: Q01DX005 (ip), vehicle: saline) of the same molecule?
A: Its T/C is 115 % of control.

Q: Which results are given for `COc1ccc2c(c1OC(C)=O)-c1cc(O)cc3c1C(C2)N(C(=O)CN(CCCl)CCCl)CC3` (stereo unspecified)?
A: T/C (dose: 3.12 mg/kg/injection, schedule: Q01DX005 (ip), vehicle: saline with Tween-80): 96 % of control; T/C (dose: 6.25 mg/kg/injection, schedule: Q01DX005 (ip), vehicle: saline with Tween-80): 102 % of control; T/C (dose: 12.5 mg/kg/injection, schedule: Q01DX005 (ip), vehicle: saline with Tween-80): 105 % of control

Q: What does the source list for `O=c1ccc2ccccc2o1`?
A: T/C (dose: 12.5 mg/kg/injection, schedule: Q01DX005 (ip), vehicle: Klucel (hydroxypropylcellulose) (HPC)): 100 % of control; T/C (dose: 25.0 mg/kg/injection, schedule: Q01DX005 (ip), vehicle: Klucel (hydroxypropylcellulose) (HPC)): 92 % of control; T/C (dose: 45.0 mg/kg/injection, schedule: Q01DX005 (ip), vehicle: saline with Tween-80): 103 % of control; T/C (dose: 50.0 mg/kg/injection, schedule: Q01DX005 (ip), vehicle: Klucel (hydroxypropylcellulose) (HPC)): 108 % of control; T/C (dose: 90.0 mg/kg/injection, schedule: Q01DX005 (ip), vehicle: saline with Tween-80): 98 % of control; T/C (dose: 100.0 mg/kg/injection, schedule: Q01DX005 (ip), vehicle: Klucel (hydroxypropylcellulose) (HPC)): 104 % of control

Q: Which T/C (dose: 32.0 mg/kg/injection, schedule: Q01DX005 (ip), vehicle: Klucel (hydroxypropylcellulose) (HPC)) does the source give for `COCC(O)Cn1ccnc1[N+](=O)[O-]` (stereo unspecified) here?
A: Its T/C is 97 % of control.

Q: What about the T/C (dose: 64.0 mg/kg/injection, schedule: Q01DX005 (ip), vehicle: Klucel (hydroxypropylcellulose) (HPC)) of the same molecule?
A: Its T/C is 96 % of control.

Q: And the T/C (dose: 100.0 mg/kg/injection, schedule: Q01DX005 (ip), vehicle: saline with Tween-80)?
A: The T/C was 97 % of control and 111 % of control.

Q: And the T/C (dose: 100.0 mg/kg/injection, schedule: Q01DX009 (ip), vehicle: saline with Tween-80)?
A: The T/C was 91 % of control and 112 % of control.

Q: What about the T/C (dose: 100.0 mg/kg/injection, schedule: Q12HX010 (ip), vehicle: saline with Tween-80) of the same molecule?
A: The T/C was 109 % of control.

Q: What about the T/C (dose: 100.0 mg/kg/injection, schedule: Q#A X010 (ip), vehicle: saline with Tween-80) of the same molecule?
A: The T/C was 167 % of control.

Q: And the T/C (dose: 100.0 mg/kg/injection, schedule: Q#ADX018 (ip), vehicle: saline with Tween-80)?
A: Its T/C is 86 % of control.

Q: And the T/C (dose: 128.0 mg/kg/injection, schedule: Q01DX005 (ip), vehicle: Klucel (hydroxypropylcellulose) (HPC))?
A: The T/C was 93 % of control.

Q: And the T/C (dose: 200.0 mg/kg/injection, schedule: Q01DX005 (ip), vehicle: saline with Tween-80)?
A: The T/C was 106 % of control and 88 % of control.

Q: What about the T/C (dose: 200.0 mg/kg/injection, schedule: Q01DX009 (ip), vehicle: saline with Tween-80) of the same molecule?
A: The T/C was 94 % of control and 107 % of control.

Q: What about the T/C (dose: 200.0 mg/kg/injection, schedule: Q12HX010 (ip), vehicle: saline with Tween-80) of the same molecule?
A: The T/C was 118 % of control.

Q: And the T/C (dose: 200.0 mg/kg/injection, schedule: Q#A X010 (ip), vehicle: saline with Tween-80)?
A: The T/C was 172 % of control.

Q: What about the T/C (dose: 200.0 mg/kg/injection, schedule: Q#ADX018 (ip), vehicle: saline with Tween-80) of the same molecule?
A: The T/C was 94 % of control.

Q: And the T/C (dose: 256.0 mg/kg/injection, schedule: Q01DX005 (ip), vehicle: Klucel (hydroxypropylcellulose) (HPC))?
A: Its T/C is 92 % of control.

Q: What about the T/C (dose: 400.0 mg/kg/injection, schedule: Q01DX005 (ip), vehicle: saline with Tween-80) of the same molecule?
A: The T/C was 92 % of control and 105 % of control.

Q: And the T/C (dose: 400.0 mg/kg/injection, schedule: Q01DX009 (ip), vehicle: saline with Tween-80)?
A: The T/C was 96 % of control and 98 % of control.

Q: What about the T/C (dose: 400.0 mg/kg/injection, schedule: Q12HX010 (ip), vehicle: saline with Tween-80) of the same molecule?
A: Its T/C is 117 % of control.

Q: What about the T/C (dose: 400.0 mg/kg/injection, schedule: Q#A X010 (ip), vehicle: saline with Tween-80) of the same molecule?
A: Its T/C is 167 % of control.

Q: And the T/C (dose: 400.0 mg/kg/injection, schedule: Q#ADX018 (ip), vehicle: saline with Tween-80)?
A: Its T/C is 100 % of control.

Q: And the T/C (dose: 512.0 mg/kg/injection, schedule: Q01DX005 (ip), vehicle: Klucel (hydroxypropylcellulose) (HPC))?
A: The T/C was 96 % of control.

Q: What about the T/C (dose: 800.0 mg/kg/injection, schedule: Q01DX005 (ip), vehicle: saline with Tween-80) of the same molecule?
A: Its T/C is 101 % of control.

Q: What about the T/C (dose: 800.0 mg/kg/injection, schedule: Q01DX009 (ip), vehicle: saline with Tween-80) of the same molecule?
A: The T/C was 103 % of control and 104 % of control.

Q: What about the T/C (dose: 800.0 mg/kg/injection, schedule: Q12HX010 (ip), vehicle: saline with Tween-80) of the same molecule?
A: Its T/C is 99 % of control.

Q: What about the T/C (dose: 800.0 mg/kg/injection, schedule: Q#A X010 (ip), vehicle: saline with Tween-80) of the same molecule?
A: The T/C was 165 % of control.

Q: What about the T/C (dose: 800.0 mg/kg/injection, schedule: Q#ADX018 (ip), vehicle: saline with Tween-80) of the same molecule?
A: Its T/C is 94 % of control.

Q: How did the T/C (dose: 32.0 mg/kg/injection, schedule: Q01DX005 (ip), vehicle: saline) turn out when `CN1CCC23c4c5ccc(O)c4OC2C(O)C=CC3C1C5` (stereo unspecified) was run?
A: Its T/C is 112 % of control.

Q: What about the T/C (dose: 64.0 mg/kg/injection, schedule: Q01DX005 (ip), vehicle: saline) of the same molecule?
A: The T/C was 101 % of control.

Q: What about the T/C (dose: 128.0 mg/kg/injection, schedule: Q01DX005 (ip), vehicle: saline) of the same molecule?
A: Its T/C is 99 % of control.

Q: How did the T/C (dose: 16.0 mg/kg/injection, schedule: Q01DX005 (ip), vehicle: saline with Tween-80) turn out when `CN(N=O)C(=O)Nc1c[nH]c(=O)[nH]c1=O` was run?
A: Its T/C is 114 % of control.

Q: With `O=NN(CCF)C(=O)NCCO` as the molecule, how does the T/C (dose: 5.18 mg/kg/injection, schedule: Q01DX005 (ip), vehicle: Klucel (hydroxypropylcellulose) (HPC)) read?
A: Its T/C is 189 % of control.

Q: What about the T/C (dose: 8.64 mg/kg/injection, schedule: Q01DX005 (ip), vehicle: Klucel (hydroxypropylcellulose) (HPC)) of the same molecule?
A: The T/C was 357 % of control.

Q: And the T/C (dose: 13.0 mg/kg/injection, schedule: Q01DX001 (ip), vehicle: saline)?
A: Its T/C is 115 % of control.

Q: And the T/C (dose: 14.4 mg/kg/injection, schedule: Q01DX005 (ip), vehicle: Klucel (hydroxypropylcellulose) (HPC))?
A: The T/C was 357 % of control.

Q: What about the T/C (dose: 21.6 mg/kg/injection, schedule: Q01DX001 (ip), vehicle: saline) of the same molecule?
A: The T/C was 181 % of control.

Q: What about the T/C (dose: 24.0 mg/kg/injection, schedule: Q01DX005 (ip), vehicle: Klucel (hydroxypropylcellulose) (HPC)) of the same molecule?
A: Its T/C is 357 % of control.

Q: What about the T/C (dose: 36.0 mg/kg/injection, schedule: Q01DX001 (ip), vehicle: saline) of the same molecule?
A: Its T/C is 363 % of control.

Q: What about the T/C (dose: 60.0 mg/kg/injection, schedule: Q01DX001 (ip), vehicle: saline) of the same molecule?
A: Its T/C is 363 % of control.

Q: For `CCCN(C)/N=N/c1nc[nH]c1C(N)=O`, which T/C (dose: 4.0 mg/kg/injection, schedule: Q01DX005 (ip), vehicle: saline with Tween-80) is on record?
A: The T/C was 112 % of control.

Q: What about the T/C (dose: 8.0 mg/kg/injection, schedule: Q01DX005 (ip), vehicle: saline with Tween-80) of the same molecule?
A: The T/C was 124 % of control.
